# Measured values published in patent publication US20210284647A1, “N-(3-(IMIDAZO[1,2-B]PYRIDAZIN-3-YLETHYNYL)-4-METHYLPHENYL)-5-PHENYL-4,5-DIHYDRO-1H-PYRAZOLE-1-CARBOXAMIDE DERIVATIVE, AND PHARMACEUTICAL COMPOSITION CONTAINING SAME AS ACTIVE INGREDIENT FOR TREATING KINASE-RELATED DISEASES” (VORONOIBIO INC., priority 2018, published 2021).
# Counter-ions that a name gives are not always drawn.
# Columns and labels:
# human GST-RIPK1 = molecular target: T1, human GST-RIPK1 (Homo sapiens, UniProt Q13546); test: RIPK1 inhibitory activity (ADP-Glo kinase assay); assay type: biochemical; conditions: human GST-RIPK1 10 ng, ATP 50 uM, 25° C. for 4 hours, read-out: Enzyme IC50
# T1 construct: GST; purchased signalchem
# T1 sequence (Q13546 1-375 limits assumed): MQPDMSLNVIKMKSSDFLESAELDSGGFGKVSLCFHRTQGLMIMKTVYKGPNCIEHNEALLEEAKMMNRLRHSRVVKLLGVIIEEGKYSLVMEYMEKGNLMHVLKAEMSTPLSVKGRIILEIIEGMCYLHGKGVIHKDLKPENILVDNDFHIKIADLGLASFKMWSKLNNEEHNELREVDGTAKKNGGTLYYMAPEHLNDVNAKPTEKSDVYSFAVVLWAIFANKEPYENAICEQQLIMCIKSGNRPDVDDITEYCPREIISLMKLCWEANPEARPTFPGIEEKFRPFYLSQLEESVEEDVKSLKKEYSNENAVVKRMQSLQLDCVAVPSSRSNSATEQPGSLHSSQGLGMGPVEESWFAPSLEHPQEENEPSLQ
# Procedure: The following experiment was performed to evaluate the inhibitory activity of the example compounds according to the present invention against RIPK1 (receptor-interacting serine/threonine protein kinase 1).
# The example compound was reacted with the purified human GST-RIPK1 (1375, signalchem) enzyme to evaluate the enzyme inhibitory activity in the following manner. The composition of the reaction buffer used herein was as follows: 40 mM Tris-Hcl pH 7.4, 20 mM MgCl2, 0.5 mg/ml, BSA and 0.5 uM DTT. All the test materials were reacted in the reaction buffer. After reacting human GST-RIPK1 (1375, 10 ng), purified ATP (50 uM) and a specific substrate solution at 25° C. for 4 hours, the enzyme activity was confirmed using an in vitro ADP-Glo™ kinase assay (promega). Luminoscence was measured by reacting the enzyme activity reaction solution, ADP-Glo reaction solution, and enzyme activity detection solution at the ratio of 2:2:1. The degree of enzyme activity inhibition according to the treatment concentration of each compound was calculated based on the fluorescence of the enzyme activity of the solvent control not treated with the compound. At this time, the concentration of each compound inhibiting 50% of the enzyme activity was determined as IC50 (nM). IC50 of each compound was determined with three data sets and calculated using Prism (version 7.01, GraphPad) software.
# [1] = test system: human Jurkat T cells deficient in FADD; test: Cell protection effect under apoptosis-inducing condition (TNF-α); assay type: cell-based; conditions: 40 ng of TNF-α, 50 hours, CellTiter-Glo, read-out: I2.I Cell EC50
# Procedure: The cell protection effect of the compounds according to the present invention under the condition of inducing apoptosis by TNF-α was confirmed by […]. An apoptosis inducing factor such as TNF-α was treated to induce apoptosis of human Jurkat T cells deficient in FADD, to which the example compound was treated, and the cell protection effect was confirmed through the following analysis. Jurkat T cells deficient in FADD were cultured using RPMI medium (Hyclone) containing 10% FBS. When performing the test, the cells were seeded in a 96-well plate containing a medium suitable for the cell line at the density of 10,000 cells/well, and cultured in a 37° C. 5% CO2 incubator for 24 hours. Then, each well was treated with 40 ng of TNF-α, and the compounds prepared in the above examples were each treated with a 3-fold concentration gradient with 1 μM as the highest concentration. As the solvent control, dimethyl sulfoxide (DMSO) was treated at the concentration of 0.05% (v/v), which was the same concentration as that used for the compound treatment. Then, the cells were cultured for 50 hours. To confirm the degree of viability of the cells, a mixture provided in CellTiter-Gloe Luminescent Cell Viability Assay Kit (Promega) was added to the culture medium of the cells, followed by further culture at 37° C. for 30 minutes. Then, luminescence fluorescence was measured. The degree of inhibition of apoptosis induction according to the treatment concentration of each compound was calculated based on the fluorescence of the solvent control cells not treated with the compound. At this time, the concentration of each compound inhibiting 50% was determined as EC50 (μM). EC50 of each compound was calculated using Prism (version 7.01, GraphPad) software.
SMILES,IC50 (human GST-RIPK1) [nM],EC50 [1] [nM]
"CS(=O)(=O)c1ccc(Nc2cccn3c(C#Cc4cccc(NC(=O)N5N=CCC5c5ccccc5)c4)cnc23)cc1 (stereo not drawn) [Example 65, N-(3-((8-((4-(methylsulfonyl)phenyl)amino)imidazo[1,2-a]pyridin-3-yl)ethynyl)phenyl)-5-phenyl-4,5-dihydro-1H-pyrazole-1-carboxamide 2,2,2-trifluoroacetate]",51.4,0.2
"CNC(=O)Nc1cccn2c(C#Cc3cccc(NC(=O)N4N=CCC4c4ccccc4)c3)cnc12 (stereo not drawn) [Example 61, N-(3-((8-(3-methylureido)imidazo[1,2-a]pyridin-3-yl)ethynyl)phenyl)-5-phenyl-4,5-dihydro-1H-pyrazole-1-carboxamide 2,2,2-trifluoroacetate]",96.7,0.4
"O=C(Nc1cccc(C#Cc2cnc3cccnn23)c1)N1N=CCC1C1CCCCC1 (stereo not drawn) [Example 42, 5-cyclohexyl-N-(3-(imidazo[1,2-b]pyridazin-3-ylethynyl)phenyl)-4,5-dihydro-1H-pyrazole-1-carboxamide]",12.7,1.5
"Cc1ccc(NC(=O)N2N=CCC2c2cccc(Cl)c2)cc1C#Cc1cnc2cccnn12 (stereo not drawn) [Example 14, 5-(3-chlorophenyl)-N-(3-(imidazo[1,2-b]pyridazin-3-ylethynyl)-4-methylphenyl)-4,5-dihydro-1H-pyrazole-1-carboxamide 2,2,2-trifluoroacetate]",5.3,0.2
"O=C(Nc1ccc(F)c(C#Cc2cnc3cccnn23)c1)N1N=CC[C@@H]1c1ccccc1 [Example 46, (R)—N-(4-fluoro-3-(imidazo[1,2-b]pyridazin-3-ylethynyl)phenyl)-5-phenyl-4,5-dihydro-1H-pyrazole-1-carboxamide 2,2,2-trifluoroacetate]",205,97.7
"Cc1ccc(NC(=O)N2N=CC[C@H]2c2ccccc2)cc1C#Cc1cnc2cccnn12 [Example 2, (S)—N-(3-(imidazo[1,2-b]pyridazin-3-ylethynyl)-4-methylphenyl)-5-phenyl-4,5-dihydro-1H-pyrazole-1-carboxamide 2,2,2-trifluoroacetate]",5.1,0.06
"O=C(Nc1ccnc(C#Cc2cnc3cccnn23)c1)N1N=CCC1c1ccccc1 (stereo not drawn) [Example 48, N-(2-(imidazo[1,2-b]pyridazin-3-ylethynyl)pyridin-4-yl)-5-phenyl-4,5-dihydro-1H-pyrazole-1-carboxamide 2,2,2-trifluoroacetate]",3.4,1.4
"COC(=O)Nc1cccn2c(C#Cc3cccc(NC(=O)N4N=CCC4c4ccccc4)c3)cnc12 (stereo not drawn) [Example 64, methyl (3-((3-(5-phenyl-4,5-dihydro-1H-pyrazole-1-carboxamido)phenyl)ethynyl)imidazo[1,2-a]pyridin-8-yl)carbamate]",119,1.1
"O=C(Nc1ccc(C#Cc2cnc3cccnn23)cc1)N1N=CCC1c1ccccc1 (stereo not drawn) [Example 22, N-(4-(imidazo[1,2-b]pyridazin-3-ylethynyl)phenyl)-5-phenyl-4,5-dihydro-1H-pyrazole-1-carboxamide 2,2,2-trifluoroacetate]",> 1000,> 1000
"Cc1cc(Nc2cccn3c(C#Cc4cccc(NC(=O)N5N=CCC5c5ccccc5)c4)cnc23)n[nH]1 (stereo not drawn) [Example 66, N-(3-((8-((5-methyl-1H-pyrazol-3-yl)amino)imidazo[1,2-a]pyridin-3-yl)ethynyl)phenyl)-5-phenyl-4,5-dihydro-1H-pyrazole-1-carboxamide 2,2,2-trifluoroacetate]",30.6,0.22
"Cc1ccc(NC(=O)N2N=CCC2c2cccc(F)c2)cc1C#Cc1cnc2cccnn12 (stereo not drawn) [Example 8, 5-(3-fluorophenyl)-N-(3-(imidazo[1,2-b]pyridazin-3-ylethynyl)-4-methylphenyl)-4,5-dihydro-1H-pyrazole-1-carboxamide 2,2,2-trifluoroacetate]",83.6,0.59
"O=C(Nc1cncc(C#Cc2cnc3cccnn23)c1)N1N=CCC1c1ccccc1 (stereo not drawn) [Example 51, N-(5-(imidazo[1,2-b]pyridazin-3-ylethynyl)pyridin-3-yl)-5-phenyl-4,5-dihydro-1H-pyrazole-1-carboxamide 2,2,2--trifluoroacetate]",1.22,1.84
"Cc1ccc(NC(=O)N2N=CCC2c2cccnc2)cc1C#Cc1cnc2cccnn12 (stereo not drawn) [Example 16, N-(3-(imidazo[1,2-b]pyridazin-3-ylethynyl)-4-methylphenyl)-5-(pyridin-3-yl)-4,5-dihydro-1H-pyrazole-1-carboxamide 2,2,2-trifluoroacetate]",1.8,0.05
"O=C(Nc1cccc(C#Cc2cnc3cccnn23)c1)N1N=CCC1c1ccncc1 (stereo not drawn) [Example 38, N-(3-(imidazo[1,2-b]pyridazin-3-ylethynyl)phenyl)-5-(pyridin-4-yl)-4,5-dihydro-1H-pyrazole-1-carboxamide hydrochloride]",1.1,106
"S=C(Nc1cccc(C#Cc2cnc3cccnn23)c1)N1N=CCC1c1ccccc1 (stereo not drawn) [Example 43, N-(3-(imidazo[1,2-b]pyridazin-3-ylethynyl)phenyl)-5-phenyl-4,5-dihydro-1H-pyrazole-1-carbothioamide]",277,6.7
"O=C(Nc1cccc(C#Cc2cnc3cccnn23)c1)N1N=CCC1c1ccc(Cl)cc1 (stereo not drawn) [Example 35, 5-(4-chlorophenyl)-N-(3-(imidazo[1,2-b]pyridazin-3-ylethynyl)phenyl)-4,5-dihydro-1H-pyrazole-1-carboxamide 2,2,2-trifluoroacetate]",61.6,3.87
"Cc1ccc(NC(=O)N2N=CC[C@H]2c2ccc(F)cc2)cc1C#Cc1cnc2cccnn12 [Example 12, (S)-5-(4-fluorophenyl)-N-(3-(imidazo[1,2-b]pyridazin-3-ylethynyl)-4-methylphenyl)-4,5-dihydro-1H-pyrazole-1-carboxamide 2,2,2-trifluoroacetate]",19.1,0.2
"O=C(Nc1cccc(C#Cc2cnc3cccnn23)c1)N1N=CC[C@H]1c1ccccc1 [Example 20, (S)—N-(3-(imidazo[1,2-b]pyridazin-3-ylethynyl)phenyl)-5-phenyl-4,5-dihydro-1H-pyrazole-1-carboxamide hydrochloride]",0.52,0.021
"O=C(Nc1cccc(C#Cc2cnc3cccnn23)c1)N1N=CC[C@@H]1c1ccccc1 [Example 21, (R)—N-(3-(imidazo[1,2-b]pyridazin-3-ylethynyl)phenyl)-5-phenyl-4,5-dihydro-1H-pyrazole-1-carboxamide hydrochloride]",> 1000,588
"O=C(Nc1cccc(C#Cc2cnc3cccnn23)c1)N1N=CCC1c1cccc(F)c1 (stereo not drawn) [Example 28, 5-(3-fluorophenyl)-N-(3-(imidazo[1,2-b]pyridazin-3-ylethynyl)phenyl)-4,5-dihydro-1H-pyrazole-1-carboxamide 2,2,2-trifluoroacetate]",10.1,0.8
"O=C(Nc1cccc(C#Cc2cnc3cccnn23)c1)N1N=CCC1c1ccc2c(c1)OCO2 (stereo not drawn) [Example 39, 5-(benzo[d][1,3]dioxol-5-yl)-N-(3-(imidazo[1,2-b]pyridazin-3-ylethynyl)phenyl)-4,5-dihydro-1H-pyrazole-1-carboxamide 2,2,2-trifluoroacetate]",4.9,2.8
